According to patent US7902156B2 (Angiochem Inc., priority 2005, dated 2011):
Read-outs that look alike come from different tables or passages of the source. Residues, ends and D or L forms follow the SMILES beside them. No end group written: not given here.

Legend:
[1] = tested on: in vitro model of the BBB (co-culture of bovine brain capillary endothelial cells and rat glial cells); test: First level screening: peptide passage in the in vitro BBB model, Coomassie blue detection; settings: 90 minutes at 37° C.
[2] = tested on: in vitro model of the BBB (bovine brain capillary endothelial cells); test: Second level screening: [125I]-peptide passage in the in vitro BBB model (cpm ratios)
Description: This BBCEC medium was changed three times a week.
The medium was changed twice a week.
Briefly, the selected peptides were iodinated with standard procedures using iodo-beads from Sigma. Two iodo-beads were used for each protein. […] The iodination for each peptide was initiated by adding 100 μg (80-100 μl) of the bead suspension. […] Fractions of 0.5 ml were collected and the radioactivity in 5 μl of each fraction was measured.
The iodinated peptides were also investigated with the in vitro model of the BBB. […] Results were expressed as cpm ratios.

brain tumor model = settings: injected alone at the maximal tolerated dose (54 mg/kg); cited from earlier work
mouse brain = test: In situ cerebral perfusion with post-perfusion capillary depletion; format: in vivo, mice; settings: perfusion 5 min; for Volume of distribution, Capillaries % / Volume of distribution, Parenchyma %: share of homogenate; for Volume of distribution, Homogenate: total brain
Source text: The in situ cerebral perfusion (in mice) was used as the fourth level of selection to select the best peptides. This procedure also distinguishes between compounds remaining in the brain vascular compartment from those having crossed the abluminal endothelial membrane to enter the brain parenchyma. Indeed, the technique of post-perfusion capillary depletion allows to measure whether the molecule really crosses the endothelium to enter the brain parenchyma.

[3] = tested on: in vitro BBB model (BBCEC monolayers grown on filters in the presence of astrocytes); test: Permeability coefficient (Pe) / transcytosis capacity in the in vitro BBB model; format: in vitro ADME, bovine; settings: third level of selection, peptide at 250 nM
Description: At different times, inserts were placed into another well.
Transcytosis capacity of Aprotinin-Paclitaxel conjugate was determined and is reported below in Table 5.

[4] = [125I]-peptide, cpm in bottom chamber / total cpm added, filter covered with endothelial cells, 90 minutes at 37° C.

| Volume of distribution, Capillaries (mouse brain) | Volume of distribution, Capillaries % (mouse brain) | Volume of distribution, Homogenate (mouse brain) | Permeability coefficient (Pe) [3] | Compound | Peptide detected in the lower side of the chambers by Coomassie blue staining [1] | other results |
| --- | --- | --- | --- | --- | --- | --- |
| – | – | – | – | C[C@@H](O)[C@H](N)C(=O)N[C@@H](Cc1ccccc1)C(=O)N[C@@H](Cc1ccccc1)C(=O)N[C@@H](Cc1ccc(O)cc1)C(=O)NCC(=O)NCC(=O)N[C@@H](CO)C(=O)N[C@@H](CCCNC(=N)N)C(=O)NCC(=O)N[C@@H](CCCCN)C(=O)N[C@@H](CCCNC(=N)N)C(=O)N[C@@H](CC(N)=O)C(=O)N[C@@H](CC(N)=O)C(=O)N[C@@H](Cc1ccccc1)C(=O)N[C@@H](CCCCN)C(=O)N[C@H](C(=O)N[C@@H](CCC(=O)O)C(=O)N[C@@H](CCC(=O)O)C(=O)N[C@@H](Cc1ccc(O)cc1)C(=O)O)[C@@H](C)O [Peptide 70, T F F Y G G S R G K R N N F K T E E Y] | detected in the lower side of the chambers | – |
| – | – | – | – | C[C@@H](O)[C@H](NC(=O)[C@H](CCCCN)NC(=O)[C@H](Cc1ccccc1)NC(=O)[C@H](CC(N)=O)NC(=O)[C@H](CC(N)=O)NC(=O)[C@H](CCCNC(=N)N)NC(=O)[C@H](CCCCN)NC(=O)CNC(=O)[C@H](CCCNC(=N)N)NC(=O)[C@H](CS)NC(=O)[C@H](CS)NC(=O)CNC(=O)[C@H](Cc1ccc(O)cc1)NC(=O)[C@H](Cc1ccccc1)NC(=O)[C@H](Cc1ccccc1)NC(=O)[C@@H](NC(=O)[C@@H](N)CS)[C@@H](C)O)C(=O)N[C@@H](CCC(=O)O)C(=O)N[C@@H](CCC(=O)O)C(=O)N[C@@H](Cc1ccc(O)cc1)C(=O)O [Peptide 71, CTFFYGCCRGKRNNFKTEEY] (H-CTFFYGCCRGKRNNFKTEEY-OH; N-terminus and C-terminus assumed) | detected in the lower side of the chambers | Ratio −cells/initial [2]: 0.072; Ratio +cells/−cells ([2]; [125I]-peptide in bottom chamber of filters covered with vs without endothelial cells): 0.37; Ratio +cells/initial [2, 4]: 0.027 |
| – | – | – | – | C[C@@H](O)[C@H](N)C(=O)N[C@@H](Cc1ccccc1)C(=O)N[C@@H](Cc1ccccc1)C(=O)N[C@@H](Cc1ccc(O)cc1)C(=O)NCC(=O)NCC(=O)N[C@@H](CS)C(=O)N[C@@H](CCCNC(=N)N)C(=O)NCC(=O)N[C@@H](CCCCN)C(=O)N[C@@H](CCCNC(=N)N)C(=O)N[C@@H](CC(N)=O)C(=O)N[C@@H](CC(N)=O)C(=O)N[C@@H](Cc1ccccc1)C(=O)N[C@@H](CCCCN)C(=O)N[C@H](C(=O)N[C@@H](CCC(=O)O)C(=O)N[C@@H](CCC(=O)O)C(=O)N[C@@H](Cc1ccc(O)cc1)C(=O)N[C@@H](CS)C(=O)O)[C@@H](C)O [Peptide 72, TFFYGGCRGKRNNFKTEEYC] (H-TFFYGGCRGKRNNFKTEEYC-OH; N-terminus and C-terminus assumed) | detected in the lower side of the chambers | – |
| – | – | – | – | C[C@@H](O)[C@H](NC(=O)[C@H](CCCCN)NC(=O)[C@H](Cc1ccccc1)NC(=O)[C@H](CC(N)=O)NC(=O)[C@H](CC(N)=O)NC(=O)[C@H](CCCNC(=N)N)NC(=O)[C@H](CCCCN)NC(=O)CNC(=O)[C@H](CCCNC(=N)N)NC(=O)[C@H](CS)NC(=O)[C@H](CO)NC(=O)CNC(=O)[C@H](Cc1ccc(O)cc1)NC(=O)[C@H](Cc1ccccc1)NC(=O)[C@H](Cc1ccccc1)NC(=O)[C@@H](NC(=O)[C@@H](N)CS)[C@@H](C)O)C(=O)N[C@@H](CCC(=O)O)C(=O)N[C@@H](CCC(=O)O)C(=O)N[C@@H](Cc1ccc(O)cc1)C(=O)O [Peptide 73, CTFFYGSCRGKRNNFKTEEY] (H-CTFFYGSCRGKRNNFKTEEY-OH; N-terminus and C-terminus assumed) | detected in the lower side of the chambers | – |
| – | – | – | – | CC(=O)O[C@H]1C(=O)[C@@]2(C)[C@H]([C@H](OC(=O)c3ccccc3)[C@]3(O)C[C@H](OC(=O)[C@H](O)[C@@H](NC(=O)c4ccccc4)c4ccccc4)C(C)=C1C3(C)C)[C@]1(OC(C)=O)CO[C@@H]1C[C@@H]2O [paclitaxel] | – | Mouse survival (brain tumor model): unable to increase mouse survival |
| – | – | – | – | PFFYGGCRGKRNNFKTEEY [Peptide 75, P F F Y G G C R G K R N N F K T E E Y] | detected in the lower side of the chambers | – |
| 76 ml/100 g | 88% | 87 ml/100 g | highest Pe | RFKYGGCLGNKNNFLRLKY [Peptide 90, R F K Y G G C L G N K N N F L R L K Y] | detected in the lower side of the chambers | Volume of distribution, Parenchyma (mouse brain): 11 ml/100 g; Volume of distribution, Parenchyma % (mouse brain): 12% |
| 217 ml/100 g | 73% | 312 ml/100 g | highest Pe | TFFYGGCRAKRNNFKRAKY-NH2 [Peptide 5, T F F Y G G C R A K R N N F K R A K Y] | detected in the lower side of the chambers | Ratio +cells/initial [2, 4]: 0.051 |
| 204 ml/100 g | 82% | 250 ml/100 g | highest Pe | TFFYGGCRGKKNNFKRAKY [Peptide 8, T F F Y G G C R G K K N N F K R A K Y] | detected in the lower side of the chambers | Volume of distribution, Parenchyma (mouse brain): 46 ml/100 g; Volume of distribution, Parenchyma % (mouse brain): 18% |
| 13 ml/100 g | 34% | 38 ml/100 g | highest Pe | TFFYGGCRGKRNNFKTEEY-NH2 [Peptide 67, T F F Y G G C R G K R N N F K T E E Y] | detected in the lower side of the chambers | – |
| 181 ml/100 g | 90% | 198 ml/100 g | highest Pe | TFFYGGCRGKRNNFKTKRY [Peptide 78, T F F Y G G C R G K R N N F K T K R Y] | detected in the lower side of the chambers | Volume of distribution, Parenchyma (mouse brain): 16 ml/100 g; Volume of distribution, Parenchyma % (mouse brain): 10% |
| – | – | – | – | TFFYGGCRGNRNNFLTAEY [Peptide 45, T F F Y G G C R G N R N N F L T A E Y] | detected in the lower side of the chambers | – |
| – | – | – | – | TFFYGGKRGKRNNFKRAKY [Peptide 82, T F F Y G G K R G K R N N F K R A K Y] | detected in the lower side of the chambers | – |
| – | – | – | – | TFFYGGKRGKRNNFKREKY [Peptide 81, T F F Y G G K R G K R N N F K R E K Y] | detected in the lower side of the chambers | – |
| 52 ml/100 g | 74% | 70 ml/100 g | highest Pe | TFFYGGKRGKRNNFKTAEY [Peptide 79, T F F Y G G K R G K R N N F K T A E Y] | detected in the lower side of the chambers | Volume of distribution, Parenchyma (mouse brain): 18 ml/100 g; Volume of distribution, Parenchyma % (mouse brain): 26% |
| – | – | – | – | TFFYGGKRGKRNNFKTEEY [Peptide 77, T F F Y G G K R G K R N N F K T E E Y] | detected in the lower side of the chambers | – |
| 1082 ml/100 g | 95% | 1141 ml/100 g | – | TFFYGGSRGNRNNFKTAKY [Peptide 25, T F F Y G G S R G N R N N F K T A K Y] | – | Volume of distribution, Parenchyma (mouse brain): 60 ml/100 g; Volume of distribution, Parenchyma % (mouse brain): 5% |

| Compound | Volume of distribution, Capillaries (mouse brain) | Volume of distribution, Capillaries % (mouse brain) | Volume of distribution, Homogenate (mouse brain) | Permeability coefficient (Pe) [3] | Peptide detected in the lower side of the chambers by Coomassie blue staining [1] | other results |
| --- | --- | --- | --- | --- | --- | --- |
| R F K Y G G C L G N K N N Y L R L K Y (RFKYGGCLGNKNNYLRLKY-NH2) [Peptide 91] | 24 ml/100 g | 59% | 47 ml/100 g | highest Pe | detected in the lower side of the chambers | Ratio +cells/initial [2]: 0.158; Ratio −cells/initial [2]: 0.406 |
| T F F Y G G C R G K R N N F K T K E Y (TFFYGGCRGKRNNFKTKEY-NH2) [Peptide 76] | 16 ml/100 g | 40% | 40 ml/100 g | highest Pe | detected in the lower side of the chambers | Ratio +cells/initial [2]: 0.084; Ratio −cells/initial [2]: 0.222 |
